From ChEMBL document CHEMBL5380773, “Novel Feleucin-K3-Derived Peptides Modified with Sulfono-γ-AA Building Blocks Targeting Pseudomonas aeruginosa and Methicillin-Resistant Staphylococcus aureus Infections” (J Med Chem, 2023)
Numbered stars: 1 amine (or outer) side, 2 acyl side, 3 side chain; on linkers, the order of the positions; unused ones are H or OH. Square brackets hold non-standard residues; d marks the D form. Peptide text beside a SMILES is read from it. * marks the point of attachment. X21 = CC(C)c1cc(C(C)C)c(S(=O)(=O)N(CC(N)=O)C[C@H](Cc2ccccc2)N*)c(C(C)C)c1; X12 = NC(=O)CN(C[C@H](Cc1ccccc1)N*)S(=O)(=O)c1ccc([N+](=O)[O-])cc1; X11 = CC(C)C[C@@H](CN(CC(N)=O)S(=O)(=O)c1ccc([N+](=O)[O-])cc1)N*; X9 = NC(=O)CN(C[C@H](Cc1ccccc1)N*)S(=O)(=O)c1ccccc1[N+](=O)[O-]; X13 = NC(=O)CN(C[C@H](Cc1ccccc1)N*)S(=O)(=O)c1ccc(Br)cc1; X19 = COc1ccc(S(=O)(=O)N(CC(N)=O)C[C@H](Cc2ccccc2)N*)cc1; Benzenesulfonyl(2-NO2) = O=[N+]([O-])c1ccccc1S(=O)(=O)*; X15 = NC(=O)CN(C[C@H](Cc1ccccc1)N*)S(=O)(=O)c1ccc(I)cc1; X23 = NC(=O)CN(C[C@H](Cc1ccccc1)N*)S(=O)(=O)c1ccc(F)cc1; X24 = Cc1ccc(S(=O)(=O)N(CC(N)=O)C[C@H](Cc2ccccc2)N*)cc1; X7 = NC(=O)CN(C[C@H](Cc1ccccc1)N*)S(=O)(=O)c1cccc(Cl)c1; X25 = CC(C)C[C@@H](CN(CC(N)=O)S(=O)(=O)c1cccc(Cl)c1)N*; X27 = Cc1ccc(S(=O)(=O)N(CC(N)=O)C[C@H](CC(C)C)N*)cc1; X6 = COc1ccc(S(=O)(=O)N(CC(N)=O)C[C@H](CC(C)C)N*)cc1; X8 = CC(C)C[C@@H](CN(CC(N)=O)S(=O)(=O)c1ccc(I)cc1)N*; Benzenesulfonyl(4-OMe) = COc1ccc(S(=O)(=O)*)cc1; Benzenesulfonyl(4-F) = O=S(=O)(c1ccc(F)cc1)*; X5 = CC(C)c1cc(C(C)C)c(S(=O)(=O)*)c(C(C)C)c1; X3 = N[C@@H](Cc1ccccc1)CN(CC(=O)[*:2])[*:1]; X2 = CC(C)C[C@H](N)CN(CC(=O)[*:2])[*:1]; X10 = O=[N+]([O-])c1ccc(S(=O)(=O)*)cc1; Brosyl = O=S(=O)(c1ccc(Br)cc1)*; X20 = O=S(=O)(c1ccc(Cl)cc1)*; X4 = O=S(=O)(c1cccc(Cl)c1)*; X1 = O=S(=O)(c1ccc(I)cc1)*

What follows are compounds tested on Erythrocyte (assay: Hemolytic activity against mouse red blood cells incubated for 1 hr).
Assay type: toxicity, cell-based

SMILES | MHC [µg/mL]
COc1ccc(S(=O)(=O)N(CC(N)=O)C[C@H](CC(C)C)NC(=O)[C@H](CCCCN)NC(=O)[C@H](CCCCN)NC(=O)[C@H](CC(C)C)NC(=O)[C@H](CC(C)C)NC(=O)[C@H](CCCCN)NC(=O)[C@H](CC(C)C)NC(=O)[C@@H](N)Cc2ccccc2)cc1 (H-FLKLLKK-X6) | 256
CC(C)C[C@H](N)CN(CC(=O)N[C@@H](CCCCN)C(=O)N[C@@H](CC(C)C)C(=O)N[C@@H](CC(C)C)C(=O)N[C@@H](CCCCN)C(=O)N[C@@H](CCCCN)C(=O)N[C@@H](CC(C)C)C(=O)N[C@@H](CC(C)C)C(N)=O)S(=O)(=O)c1ccc(F)cc1 ({Benzenesulfonyl(4-F)}-[X2]KLLKKLL-NH2) | 256
COc1ccc(S(=O)(=O)N(CC(=O)N[C@@H](CCCCN)C(=O)N[C@@H](CC(C)C)C(=O)N[C@@H](CC(C)C)C(=O)N[C@@H](CCCCN)C(=O)N[C@@H](CCCCN)C(=O)N[C@@H](CC(C)C)C(=O)N[C@@H](CC(C)C)C(N)=O)C[C@@H](N)CC(C)C)cc1 ({Benzenesulfonyl(4-OMe)}-[X2]KLLKKLL-NH2) | 256
CC(C)C[C@H](NC(=O)[C@H](CC(C)C)NC(=O)[C@H](CCCCN)NC(=O)[C@H](CCCCN)NC(=O)[C@H](CC(C)C)NC(=O)[C@H](CC(C)C)NC(=O)[C@H](CCCCN)NC(=O)CN(C[C@@H](N)Cc1ccccc1)S(=O)(=O)c1ccc([N+](=O)[O-])cc1)C(N)=O (X10-[X3]KLLKKLL-NH2) | 256
CC(C)C[C@H](NC(=O)[C@H](CC(C)C)NC(=O)[C@H](CCCCN)NC(=O)[C@H](CC(C)C)NC(=O)[C@@H](N)Cc1ccccc1)C(=O)N[C@@H](CCCCN)C(=O)N[C@@H](CCCCN)C(=O)N[C@@H](Cc1ccccc1)CN(CC(N)=O)S(=O)(=O)c1c(C(C)C)cc(C(C)C)cc1C(C)C (H-FLKLLKK-X21) | 32
CC(C)C[C@H](NC(=O)[C@H](CC(C)C)NC(=O)[C@H](CCCCN)NC(=O)[C@H](CCCCN)NC(=O)[C@H](CC(C)C)NC(=O)[C@H](CC(C)C)NC(=O)[C@H](CCCCN)NC(=O)CN(C[C@@H](N)Cc1ccccc1)S(=O)(=O)c1ccc(Cl)cc1)C(N)=O (X20-[X3]KLLKKLL-NH2) | 64
CC(C)C[C@H](NC(=O)[C@H](CC(C)C)NC(=O)[C@H](CCCCN)NC(=O)[C@H](CCCCN)NC(=O)[C@H](CC(C)C)NC(=O)[C@H](CC(C)C)NC(=O)[C@H](CCCCN)NC(=O)CN(C[C@@H](N)Cc1ccccc1)S(=O)(=O)c1c(C(C)C)cc(C(C)C)cc1C(C)C)C(N)=O (X5-[X3]KLLKKLL-NH2) | 16
CC(C)C[C@H](NC(=O)[C@H](CC(C)C)NC(=O)[C@H](CCCCN)NC(=O)[C@H](CCCCN)NC(=O)[C@H](CC(C)C)NC(=O)[C@H](CC(C)C)NC(=O)[C@H](CCCCN)NC(=O)CN(C[C@@H](N)Cc1ccccc1)S(=O)(=O)c1ccccc1[N+](=O)[O-])C(N)=O ({Benzenesulfonyl(2-NO2)}-[X3]KLLKKLL-NH2) | 256
Cc1ccc(S(=O)(=O)N(CC(N)=O)C[C@H](CC(C)C)NC(=O)[C@H](CCCCN)NC(=O)[C@H](CCCCN)NC(=O)[C@H](CC(C)C)NC(=O)[C@H](CC(C)C)NC(=O)[C@H](CCCCN)NC(=O)[C@H](CC(C)C)NC(=O)[C@@H](N)Cc2ccccc2)cc1 (H-FLKLLKK-X27) | 256
CC(C)C[C@@H](CN(CC(N)=O)S(=O)(=O)c1ccc([N+](=O)[O-])cc1)NC(=O)[C@H](CCCCN)NC(=O)[C@H](CCCCN)NC(=O)[C@H](CC(C)C)NC(=O)[C@H](CC(C)C)NC(=O)[C@H](CCCCN)NC(=O)[C@H](CC(C)C)NC(=O)[C@@H](N)Cc1ccccc1 (H-FLKLLKK-X11) | 256
Cc1ccc(S(=O)(=O)N(CC(N)=O)C[C@H](Cc2ccccc2)NC(=O)[C@H](CCCCN)NC(=O)[C@H](CCCCN)NC(=O)[C@H](CC(C)C)NC(=O)[C@H](CC(C)C)NC(=O)[C@H](CCCCN)NC(=O)[C@H](CC(C)C)NC(=O)[C@@H](N)Cc2ccccc2)cc1 (H-FLKLLKK-X24) | 256
CC(C)C[C@H](NC(=O)[C@H](CC(C)C)NC(=O)[C@H](CCCCN)NC(=O)[C@H](CC(C)C)NC(=O)[C@@H](N)Cc1ccccc1)C(=O)N[C@@H](CCCCN)C(=O)N[C@@H](CCCCN)C(=O)N[C@@H](Cc1ccccc1)CN(CC(N)=O)S(=O)(=O)c1ccccc1[N+](=O)[O-] (H-FLKLLKK-X9) | 256
CC(C)C[C@H](NC(=O)[C@H](CC(C)C)NC(=O)[C@H](CCCCN)NC(=O)[C@H](CCCCN)NC(=O)[C@H](CC(C)C)NC(=O)[C@H](CC(C)C)NC(=O)[C@H](CCCCN)NC(=O)CN(C[C@@H](N)Cc1ccccc1)S(=O)(=O)c1ccc(I)cc1)C(N)=O (X1-[X3]KLLKKLL-NH2) | 32
CC(C)C[C@H](NC(=O)[C@H](CC(C)C)NC(=O)[C@H](CCCCN)NC(=O)[C@H](CC(C)C)NC(=O)[C@@H](N)Cc1ccccc1)C(=O)N[C@@H](CCCCN)C(=O)N[C@@H](CCCCN)C(=O)N[C@@H](Cc1ccccc1)CN(CC(N)=O)S(=O)(=O)c1ccc([N+](=O)[O-])cc1 (H-FLKLLKK-X12) | 256
CC(C)C[C@H](NC(=O)[C@H](CC(C)C)NC(=O)[C@H](CCCCN)NC(=O)[C@H](CC(C)C)NC(=O)[C@@H](N)Cc1ccccc1)C(=O)N[C@@H](CCCCN)C(=O)N[C@@H](CCCCN)C(=O)N[C@@H](Cc1ccccc1)CN(CC(N)=O)S(=O)(=O)c1cccc(Cl)c1 (H-FLKLLKK-X7) | 256
CC(C)C[C@H](NC(=O)[C@H](CC(C)C)NC(=O)[C@H](CCCCN)NC(=O)[C@H](CCCCN)NC(=O)[C@H](CC(C)C)NC(=O)[C@H](CC(C)C)NC(=O)[C@H](CCCCN)NC(=O)CN(C[C@@H](N)Cc1ccccc1)S(=O)(=O)c1cccc(Cl)c1)C(N)=O (X4-[X3]KLLKKLL-NH2) | 128
COc1ccc(S(=O)(=O)N(CC(N)=O)C[C@H](Cc2ccccc2)NC(=O)[C@H](CCCCN)NC(=O)[C@H](CCCCN)NC(=O)[C@H](CC(C)C)NC(=O)[C@H](CC(C)C)NC(=O)[C@H](CCCCN)NC(=O)[C@H](CC(C)C)NC(=O)[C@@H](N)Cc2ccccc2)cc1 (H-FLKLLKK-X19) | 256
CC(C)C[C@H](N)CN(CC(=O)N[C@@H](CCCCN)C(=O)N[C@@H](CC(C)C)C(=O)N[C@@H](CC(C)C)C(=O)N[C@@H](CCCCN)C(=O)N[C@@H](CCCCN)C(=O)N[C@@H](CC(C)C)C(=O)N[C@@H](CC(C)C)C(N)=O)S(=O)(=O)c1ccccc1[N+](=O)[O-] ({Benzenesulfonyl(2-NO2)}-[X2]KLLKKLL-NH2) | 256
CC(C)C[C@@H](CN(CC(N)=O)S(=O)(=O)c1ccc(I)cc1)NC(=O)[C@H](CCCCN)NC(=O)[C@H](CCCCN)NC(=O)[C@H](CC(C)C)NC(=O)[C@H](CC(C)C)NC(=O)[C@H](CCCCN)NC(=O)[C@H](CC(C)C)NC(=O)[C@@H](N)Cc1ccccc1 (H-FLKLLKK-X8) | 256
CC(C)C[C@H](NC(=O)[C@H](CC(C)C)NC(=O)[C@H](CCCCN)NC(=O)[C@H](CC(C)C)NC(=O)[C@@H](N)Cc1ccccc1)C(=O)N[C@@H](CCCCN)C(=O)N[C@@H](CCCCN)C(=O)N[C@@H](Cc1ccccc1)CN(CC(N)=O)S(=O)(=O)c1ccc(Br)cc1 (H-FLKLLKK-X13) | 256
CC(C)C[C@H](NC(=O)[C@H](CC(C)C)NC(=O)[C@H](CCCCN)NC(=O)[C@H](CCCCN)NC(=O)[C@H](CC(C)C)NC(=O)[C@H](CC(C)C)NC(=O)[C@H](CCCCN)NC(=O)CN(C[C@@H](N)Cc1ccccc1)S(=O)(=O)c1ccc(F)cc1)C(N)=O ({Benzenesulfonyl(4-F)}-[X3]KLLKKLL-NH2) | 256
CC(C)C[C@H](N)CN(CC(=O)N[C@@H](CCCCN)C(=O)N[C@@H](CC(C)C)C(=O)N[C@@H](CC(C)C)C(=O)N[C@@H](CCCCN)C(=O)N[C@@H](CCCCN)C(=O)N[C@@H](CC(C)C)C(=O)N[C@@H](CC(C)C)C(N)=O)S(=O)(=O)c1ccc([N+](=O)[O-])cc1 (X10-[X2]KLLKKLL-NH2) | 256
CC(C)C[C@H](N)CN(CC(=O)N[C@@H](CCCCN)C(=O)N[C@@H](CC(C)C)C(=O)N[C@@H](CC(C)C)C(=O)N[C@@H](CCCCN)C(=O)N[C@@H](CCCCN)C(=O)N[C@@H](CC(C)C)C(=O)N[C@@H](CC(C)C)C(N)=O)S(=O)(=O)c1ccc(Cl)cc1 (X20-[X2]KLLKKLL-NH2) | 256
CC(C)C[C@@H](CN(CC(N)=O)S(=O)(=O)c1cccc(Cl)c1)NC(=O)[C@H](CCCCN)NC(=O)[C@H](CCCCN)NC(=O)[C@H](CC(C)C)NC(=O)[C@H](CC(C)C)NC(=O)[C@H](CCCCN)NC(=O)[C@H](CC(C)C)NC(=O)[C@@H](N)Cc1ccccc1 (H-FLKLLKK-X25) | 256
CC(C)C[C@H](NC(=O)[C@H](CC(C)C)NC(=O)[C@H](CCCCN)NC(=O)[C@H](CC(C)C)NC(=O)[C@@H](N)Cc1ccccc1)C(=O)N[C@@H](CCCCN)C(=O)N[C@@H](CCCCN)C(=O)N[C@@H](Cc1ccccc1)CN(CC(N)=O)S(=O)(=O)c1ccc(I)cc1 (H-FLKLLKK-X15) | 128
COc1ccc(S(=O)(=O)N(CC(=O)N[C@@H](CCCCN)C(=O)N[C@@H](CC(C)C)C(=O)N[C@@H](CC(C)C)C(=O)N[C@@H](CCCCN)C(=O)N[C@@H](CCCCN)C(=O)N[C@@H](CC(C)C)C(=O)N[C@@H](CC(C)C)C(N)=O)C[C@@H](N)Cc2ccccc2)cc1 ({Benzenesulfonyl(4-OMe)}-[X3]KLLKKLL-NH2) | 256
CC(C)C[C@H](NC(=O)[C@H](CC(C)C)NC(=O)[C@H](CCCCN)NC(=O)[C@H](CC(C)C)NC(=O)[C@@H](N)Cc1ccccc1)C(=O)N[C@@H](CCCCN)C(=O)N[C@@H](CCCCN)C(=O)N[C@@H](Cc1ccccc1)CN(CC(N)=O)S(=O)(=O)c1ccc(F)cc1 (H-FLKLLKK-X23) | 256
CC(C)C[C@H](NC(=O)[C@H](CC(C)C)NC(=O)[C@H](CCCCN)NC(=O)[C@H](CCCCN)NC(=O)[C@H](CC(C)C)NC(=O)[C@H](CC(C)C)NC(=O)[C@H](CCCCN)NC(=O)CN(C[C@@H](N)Cc1ccccc1)S(=O)(=O)c1ccc(Br)cc1)C(N)=O (Brosyl-[X3]KLLKKLL-NH2) | 64
